Data: patent US20160296591A1, “COMPOSITIONS AND METHODS FOR TREATMENT OF BDNF-RELATED CONDITIONS” (TARIX PHARMACEUTICALS LTD., priority 2013, published 2016)

Legend:
Type in all cases: cell-based, human
BDNF [1] = test: BDNF production in HUVEC, serum-free medium (BDNF Emax immunoassay); conditions: for lowest dose able to stimulate significant BDNF expression: serum-free medium, 24 hours stimulation, dose response 1×10^−14M to 1×10^−6M
Method: (§1) Prior to stimulation, cells were washed twice with sterile PBS and then provided with the respective serum free cell medium. Cells were incubated in the serum-free medium for one hour and afterwards stimulated for 24 hours. For the dose response measurement the peptides were used in a range from 1×10^−14M to 1×10^−6M. For all other experiments, a 1×10^−7M concentration of the peptides was used, whereas isoproterenol and forskolin were used in a 10^−6M concentration. To maintain the concentration of the substances over a period of 24 hours they were added again into the medium after 12 hours. After stimulation, the concentration of BDNF was determined in the cell medium. The samples were either used directly or stored at −80° C.
(§2) For the determination of the concentration of BDNF the BDNF Emax® immunoassay system from Promega was used. At first, 96-well plates were coated with anti-BDNF overnight at 4° C. The next day, the plates were washed with TBST and incubated with blocking buffer for one hour at room temperature. Afterwards, the plate was washed again with TBST, and 100 μl of sample were applied per well. The plate was incubated on a shaker (˜400 rpm) for two hours at room temperature and later on washed five times with TBST. To each well 100 μl pAb anti-human BDNF were added, and the plate again incubated under continuous shaking for two hours at room temperature. Thereafter, the plate was washed five times with TBST, each well applied with 100 μl anti-IgY-HRP conjugate, and incubated at room temperature with shaking for one hour. Then, the plate was washed five times with TBST and incubated for 10 min at room temperature on a shaker with TMB One Solution. The reaction was stopped with 1 M hydrochloric acid and the absorbance was measured immediately at 450 nm. The BDNF concentration was determined from a standard curve.

BDNF [2] = test: BDNF production in HDMEC, serum-free medium (BDNF Emax immunoassay); conditions: for lowest dose able to stimulate significant BDNF expression: serum-free medium, 24 hours stimulation, dose response 1×10^−14M to 1×10^−6M
Method: as §1, §2

BDNF [3] = test: BDNF production in HUVEC in complete (serum-containing) medium; conditions: peptide 1×10^−7M, 24 hours
Method: as §1, with “[…] […]” for “Prior to stimulation, cells were washed twice with sterile PBS and then provided with the respective serum free cell medium. Cells were incubated in the serum-free medium for one hour and afterwards stimulated for 24 hours.”
as §2, with “Thereafter, the plate was washed five times with TBST, each well applied with 100 μl anti-IgY-HRP conjugate, and incubated at room temperature with shaking for one hour. Then, the plate was washed five times with TBST and incubated for 10 min at room temperature on a shaker with TMB One Solution.” left out, “curve. […]” for “curve.”

cAMP = cAMP production in HUVEC (cAMP enzyme immunoassay); conditions: 15 minutes of stimulation
Method: Prior to stimulation with Ala^1-Arg^2-Val^3-Ser^4-Ile^5-His^6-Cys^7 (SEQ ID NO: 24), HUVEC cells were washed twice with PBS and then incubated for 1 hour in serum-free medium. In this Example, in order to generate a dose response curve, the peptide concentration ranged from 1×10^−13-1×10^−6 M. After 15 minutes of stimulation, the medium containing the peptide was removed and the cells were lysed (0.1M HCl, 0.1% Triton X-100). The clear lysate was collected, and 25 μl were used for determining the protein concentration (Pierce BCA Protein Assay Kit, Thermo Scientific, Rockford, USA) and the remaining fraction stored at −80° C. for later analysis.
cAMP concentration in cell lysates was determined using cAMP Enzyme Immunoassay Kit, Direct from Sigma-Aldrich (St. Louis, Mo., USA). Briefly, wells of 96-well plate (Goat Anti-Rabbit IgG pre-coated) were neutralized with 50 μl of Neutralizing Reagent. Next, 100 μl of acetylated cyclic AMP standard or cell lysate was added, followed by 50 μl of blue cAMP-Alkaline Phosphatase Conjugate and 50 μl of yellow EIA Rabbit Anti-cAMP antibody. The plate was then incubated on a shaker (˜500 rpm) for two hours at room temperature. […] The enzymatic reaction was stopped by adding 50 μl of Stop Solution, and the absorbance at 405 nm was measured immediately. The cAMP concentration was determined from non-linear standard curve using GraphPad Prism 5.0 software. […]

Row | dose of the observed maximum of cAMP (cAMP) | lowest dose giving a significant increase in cAMP (cAMP; dose response 1×10^−13-1×10^−6 M) [pM] | Compound | lowest dose able to stimulate significant BDNF expression (BDNF [1]) [pM] | lowest dose able to stimulate significant BDNF expression (BDNF [2]) [pM] | BDNF stimulation compared to control (BDNF [3]) | BDNF expression at doses 100,000 times higher than 1×10^−11 compared with 1×10^−11 M (BDNF [1]) | BDNF expression at doses 100,000 times higher than 1×10^−11 compared with 1×10^−11 M (BDNF [2])
1 | – | – | CCC(C)C1NC(=O)C(NC(=O)C(NC(=O)C(CCCNC(=N)N)NC(=O)C(N)CC(=O)O)C(C)C)CSCC(C(=O)O)NC(=O)C(Cc2c[nH]cn2)NC1=O (centres unmarked) [Pancyte] | 10 | 10 | still able to stimulate BDNF above control levels | – | –
2 | approximately 1×10^−9 M | 10 | Ala^1-Arg^2-Val^3-Ser^4-Ile^5-His^6-Cys^7 (ARVSIHC) [SEQ ID NO:24] | – | – | – | – | –
3 | – | – | Asp^1-Arg^2-Val^3-Tyr^4-Ile^5-His^6-Pro^7 (DRVYIHP) [Ang (1-7), naturally-occurring Angiotensin (1-7), seven amino acid peptide] | 10000 | 10000 | – | – | –
4 | – | – | TXA301: angiotensin (1-7) peptide tested; not defined in the text, possibly linear SEQ ID NO: 6 (DRVSIHC) | 10 | 10 | – | statistically similar levels of expression | statistically similar levels of expression
